# Literature values as cited in patent publication US6416793B1, “Formulations and use of controlled-release indole alkaloids” (BioResponse, L.L.C., priority 2000, dated 2002).
# Structures can show the parent of a compound that is named as a salt.
# Tests used:
# [1] = tableted preparations of pure yohimbine
# overweight men = conditions: 16.2 to 43.2 mg/day, six month period
# dogs = conditions: 0.4 mg/kg/day
# [2] = system: overweight female subjects; conditions: three weeks
# [3] = system: obese and non-obese women; conditions: in vivo
compound,measurement,setting,value
COC(=O)[C@@H]1[C@H]2C[C@H]3c4[nH]c5ccccc5c4CCN3C[C@@H]2CC[C@@H]1O [yohimbine],plasma half life,[1],less than 1 hour
"COC(=O)[C@@H]1[C@H]2C[C@H]3c4[nH]c5ccccc5c4CCN3C[C@@H]2CC[C@@H]1O [yohimbine Hcl, (16 alpha, 17 alpha)-17-hydroxyyohimban-16-carboxylic acidmethyl ester hydrochloride]",additional weight loss versus placebo,overweight men,failed to show advantage in additional weight loss over placebo
"O=C(O[C@@H]1Cc2c(O)cc(O)cc2O[C@@H]1c1cc(O)c(O)c(O)c1)c1cc(O)c(O)c(O)c1 [epigallocatechin gallate (EGCG), epigallocatechin gallate]",resting energy expenditure,humans,increase resting energy expenditure in humans
same,rate of weight loss,diet-restricted animals,increase the rate of weight loss in diet-restricted animals
yohimbine,body weight,dogs,rapid loss of body weight
same,daily food intake,dogs; rapidly absorbed pure yohimbine,dramatic reduction in daily food intake
same,continued weight loss versus placebo,"[2]; 5 mg 4 times per day (20 mg/day), weight loss diet",Significantly greater continued weight loss
same,energy expenditure during exercise,[2]; 20 mg/day,greater energy expenditure in the treated group during exercise
same,circulating levels of norepinephrine,[3],increase circulating levels of norepinephrine
